Bridge positions count the residues as written; N and C are the ends. Square brackets hold non-standard residues; d marks the D form. Triazole bridges read from a SMILES are 1,4-linked. Ends that are not written are not given here. Peptide text beside a SMILES is read from it. Lys(N3) = [N-]=[N+]=NCCCC[C@H](N)C(=O)O; Pra = C#CC[C@H](N)C(=O)O
How the values were obtained:
[1] = molecular target: T1, His-PSMA (Sino Biological) (Homo sapiens, UniProt Q04609); test: ELISA, PSMA immobilized via His-tag, PCC titrated in solution; format: binding; conditions: biotin-PEG10-PEG10-peptide ligands
T1 construct: purchased Sino Biological
T1 sequence (Q04609 whole entry): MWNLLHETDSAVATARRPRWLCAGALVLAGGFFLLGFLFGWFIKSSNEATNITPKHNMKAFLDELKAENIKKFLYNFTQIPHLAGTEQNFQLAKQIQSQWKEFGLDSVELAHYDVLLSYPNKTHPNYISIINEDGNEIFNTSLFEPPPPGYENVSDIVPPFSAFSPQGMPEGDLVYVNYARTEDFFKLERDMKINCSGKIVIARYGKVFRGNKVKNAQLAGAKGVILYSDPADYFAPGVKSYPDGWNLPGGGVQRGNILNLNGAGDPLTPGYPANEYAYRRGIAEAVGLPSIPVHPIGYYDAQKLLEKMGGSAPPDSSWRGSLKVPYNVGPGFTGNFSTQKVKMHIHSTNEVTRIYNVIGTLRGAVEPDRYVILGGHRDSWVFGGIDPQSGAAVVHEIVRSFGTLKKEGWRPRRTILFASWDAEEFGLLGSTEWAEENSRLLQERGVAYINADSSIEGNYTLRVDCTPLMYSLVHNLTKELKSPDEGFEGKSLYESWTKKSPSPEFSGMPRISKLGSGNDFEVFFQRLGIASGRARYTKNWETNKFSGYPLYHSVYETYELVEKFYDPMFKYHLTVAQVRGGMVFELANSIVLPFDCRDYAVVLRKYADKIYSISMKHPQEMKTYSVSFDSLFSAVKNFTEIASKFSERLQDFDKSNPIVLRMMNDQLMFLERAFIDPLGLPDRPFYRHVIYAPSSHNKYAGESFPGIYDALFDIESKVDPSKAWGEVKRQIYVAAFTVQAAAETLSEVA
Method: (§1) Epitope 5 hits were tested for binding to PSMA by ELISA (PSMA immobilized; PCC titrated in solution). Two immobilization strategies were employed: a His-tag and Myc-Flag tag (His-PSMA (Sino Biological) and PSMA-Myc-Flag (Origene)).

PSMA-Myc-Flag (Origene) = molecular target: T2, PSMA-Myc-Flag (Origene) (Homo sapiens, UniProt Q04609); test: ELISA, PSMA immobilized via Myc-Flag tag, PCC titrated in solution; format: binding; conditions: biotin-PEG10-PEG10-peptide ligands
T2 construct: purchased Origene
T2 sequence (Q04609 whole entry): as above
Method: as §1

LNCaP cells (PSMA+) = test: Flow cytometry binding to PSMA+ cells; format: cell-based
Description: (§2) Hits resulting from the epitope 2 screen were also profiled by ELISA and flow.
(§3) Hits resulting from the epitope 3 screen were scaled up and subjected to ELISA and flow experiments.
(§4) Hits resulting from the epitope 4 screen were also profiled in ELISA and flow cytometry.
(§5) To increase the throughput of the screening step, three epitopes were mixed and screened against the pre-cleared library. PSMA epitopes 2C, 6, and 7 were mixed and picked by either an ImmPACT Vector Red or BCIP/NBT dye (FIG. 11). The ImmPACT Vector Red screen identified the hit peptide ehtye (SEQ ID NO:22). […] Further epitope selectivity can be deconvoluted via a single epitope orientation assay.

PC3 (PSMA−) cells = test: Flow cytometry binding to PSMA- cells; format: cell-based
Description: as §2, §3, §5

recombinant PSMA = recombinant PSMA (Homo sapiens, UniProt Q04609); test: ELISA against recombinant PSMA protein; format: binding
Chain of recombinant PSMA (Q04609 whole entry): as above
Description: as §2, §3, §4, §5

full length PSMA protein = molecular target: T3, full length PSMA protein (Homo sapiens, UniProt Q04609); test: Bead screen with 50 nM full length PSMA protein; format: binding; conditions: beads that did not bind LNCaP cells
T3 construct: were incubated with 50 nM full length PSMA protein
T3 sequence (Q04609 whole entry): as above
Description: Some beads were lost during this screen. Most beads turned purple. […] These will be evaluated further by calculating their binding affinities by docking against the screened epitopes 2C, 6, and 7. Clustering analysis was used to identify some interesting sequences. Sequences found in the periphery (pkvrd (SEQ ID NO:27), frvkd (SEQ ID NO:28), dyksk (SEQ ID NO:32), Grkpf (SEQ ID NO:35), kwndd (SEQ ID NO:36), tkGne (SEQ ID NO:39), kvetd (SEQ ID NO:41), neGfd (SEQ ID NO:42), ekfld (SEQ ID NO:43), dkkaw (SEQ ID NO:44), veyGn (SEQ ID NO:45)) are generally preferred because they are more interesting chemically.

[2] = system: LNCaP cells (a PSMA+ cell line); test: LNCaP cell adherence to hit beads; format: cell-based; conditions: on-bead peptide
CD8 = test: ELISA selectivity over an unrelated protein; format: binding

Row | Compound | binding to LNCaP (PSMA+) cells by flow (LNCaP cells (PSMA+)) | binding to PC3 / PSMA− cells by flow (PC3 (PSMA−) cells) | binding to recombinant PSMA by ELISA (recombinant PSMA) | adherence of LNCaP cells to the bead [2] | also measured
1 | CC(=O)N[C@H]1Cc2cn(nn2)CCCC[C@@H](C(N)=O)NC(=O)[C@@H](Cc2c[nH]c3ccccc23)NC(=O)[C@@H](Cc2c[nH]c3ccccc23)NC(=O)[C@@H](CCC(=O)O)NC(=O)[C@@H](CCCNC(=N)N)NC(=O)[C@@H](Cc2c[nH]cn2)NC1=O [hreww] (Ac-[Pra][dH][dR][dE][dW][dW][Lys(N3)]-NH2; triazole 1-7; N-terminus and C-terminus assumed) | – | – | – | – | binding to PSMA by ELISA [1]: nanomolar binding affinity; binding to PSMA by ELISA (PSMA-Myc-Flag (Origene)): nanomolar binding affinity
2 | CC(=O)N[C@H]1Cc2cn(nn2)CCCC[C@@H](C(N)=O)NC(=O)[C@@H](Cc2c[nH]cn2)NC(=O)[C@@H](Cc2c[nH]cn2)NC(=O)[C@@H](CCCCN)NC(=O)[C@@H](Cc2ccccc2)NC(=O)[C@@H](CC(C)C)NC1=O [lfkhh] (Ac-[Pra][dL][dF][dK][dH][dH][Lys(N3)]-NH2; triazole 1-7; N-terminus and C-terminus assumed) | bound equally | bound equally | – | – | –
3 | dntwp: dark purple bead in full length PSMA screen ([dD][dN][dT][dW][dP]) | no binding | – | no binding | – | bead colour after incubation with PSMA protein (full length PSMA protein): darker than the others
4 | dwpve: LNCaP-adherent bead hit1 (Table 8) ([dD][dW][dP][dV][dE]) | no binding | – | no binding | good adherence | –
5 | ehtye: hit of ImmPACT Vector Red screen against mixed epitopes 2C, 6, 7 ([dE][dH][dT][dY][dE]) | – | increased binding to PSMA− cells | Binding to recombinant PSMA protein was achieved | – | selectivity for PSMA over an unrelated protein (CD8) (CD8): good selectivity
6 | ert dimer: dimer of epitope 2 hit ert, PEG10-ert-Tz-ert ([dE]-[dR]-[dT]; also: dimer: PEG10-ert-Tz-ert) | showed binding | showed binding | – | – | EC50 (recombinant PSMA; read-out: EC50 of binding to recombinant PSMA by ELISA): 769 nM
7 | ert: epitope 2A/2B hit1 (Table 3) ([dE]-[dR]-[dT]) | did not show binding | did not show binding | – | – | –
8 | kwtsd: LNCaP-adherent bead hit2 (Table 8) ([dK][dW][dT][dS][dD]) | no binding | – | no binding | good adherence | –
9 | svand: LNCaP-adherent bead hit3 (Table 8) ([dS][dV][dA][dN][dD]) | modest | same binding to both PSMA+ and PSMA− cells | Binding to recombinant PSMA protein was achieved | good adherence | selectivity for PSMA over an unrelated protein (CD8) (CD8): good selectivity

— patent publication US11638764B2, “Theranostic capture agents, compositions, and methods of using and making” (Indi Molecular, Inc., priority 2018, dated 2023)
